From patent US20100061928A1, “LABELLED ANALOGUES OF HALOBENZAMIDES AS RADIOPHARMACEUTICALS” (Institut National De La Sante et De La Recherche Medicale …, priority 2006, published 2010)
Structures can show the parent of a compound that is named as a salt.

Experiments:
[1] = Elimination of the molecules: cumulative urinary and faecal excretion 0-72 hours; assay type: in vivo, mouse; settings: for Faecal elimination 0-72 hours (Faeces) / Urinary and faecal elimination 0-72 hours (Total) / Urinary elimination 0-72 hours (Urine): cumulative excretion 0-72 hours; for Faecal elimination 0-72 hours (Faeces) / Urinary elimination 0-72 hours (Urine): mice in metabolic cages; for Urinary and faecal elimination 0-72 hours (Total): urine + faeces; for elimination route (in words): urinary versus faecal, 0-72 hours; for elimination kinetics from the body (in words): urine and faeces, up to 72 hours
[2] = test system: tumour; assay: Dosimetry with regard to the tumour (MIRD programme, extrapolated to ^131I); settings: for Effective period: extrapolated to 131I labelling; for Biological period: from biodistribution data
[3] = test system: grafted B16 F0 murine melanoma tumour; assay: Biodistribution of the ^125I-labelled molecules in the melanoma-bearing mouse (autoradiography of whole-body sections); settings: for Biodistribution, Mean, B 16: B 16 tumour
[4] = 1 H after i.v. administration, ^125I-labelled compound
[5] = 3 H after i.v. administration, ^125I-labelled compound
[6] = 6 H after i.v. administration, ^125I-labelled compound
[7] = 24 H after i.v. administration, ^125I-labelled compound
[8] = 72 H after i.v. administration, ^125I-labelled compound

## CCN(CC)CCNC(=O)c1cc2c(I)cccc2s1.Cl [compound 13, N-(2-diethylaminoethyl)-4-iodobenzo[b]thiophene-2-carboxamide hydrochloride]
[1]
  Faecal elimination 0-72 hours (Faeces): 46.7%
  Urinary and faecal elimination 0-72 hours (Total): 99.3%
  Urinary elimination 0-72 hours (Urine): 52.6%
  elimination route (in words): about equivalent
  elimination kinetics from the body (in words): complete at 72 hours
[2]
  Effective period: 23.5 h
  Biological period: 26.7 hours
[3]; [4]
  Concentration of radioactivity, Ic (intestinal contents), Mean: 71.13 % ID/g
  Concentration of radioactivity, Sc (stomach contents), Mean: 20.00 % ID/g
  Concentration of radioactivity, blood (measured in the heart cavity), Mean: 1.37 % ID/g
  Concentration of radioactivity, brain, Mean: 0.81 % ID/g
  Concentration of radioactivity, kidney, Mean: 5.61 % ID/g
  Concentration of radioactivity, liver, Mean: 2.21 % ID/g
  Concentration of radioactivity, lungs, Mean: 3.69 % ID/g
  Concentration of radioactivity, muscle (skeletal muscle), Mean: 0.77 % ID/g
  Concentration of radioactivity, spleen, Mean: 3.88 % ID/g
  Concentration of radioactivity, thyroid, Mean: 24.03 % ID/g
  Concentration of radioactivity, uvea (pigmented tissues of the eye), Mean: 16.09 % ID/g
[3]; [5]
  Concentration of radioactivity, B 16 (tumour), Mean: 9.98 % ID/g
  Concentration of radioactivity, GB (gall bladder), Mean: 65.56 % ID/g
  Concentration of radioactivity, Ic (intestinal contents), Mean: 73.02 % ID/g
  Concentration of radioactivity, Sc (stomach contents), Mean: 5.93 % ID/g
  Concentration of radioactivity, liver, Mean: 1.25 % ID/g
  Concentration of radioactivity, thyroid, Mean: 67.21 % ID/g
  Concentration of radioactivity, uvea (pigmented tissues of the eye), Mean: 19.51 % ID/g
[3]; [6]
  Concentration of radioactivity, B 16 (tumour), Mean: 8.72 % ID/g
  Concentration of radioactivity, Ic (intestinal contents), Mean: 37.70 % ID/g
  Concentration of radioactivity, Sc (stomach contents), Mean: 18.77 % ID/g
  Concentration of radioactivity, thyroid, Mean: 139.12 % ID/g
  Concentration of radioactivity, uvea (pigmented tissues of the eye), Mean: 16.29 % ID/g
[3]; [7]
  Concentration of radioactivity, B 16 (tumour), Mean: 7.28 % ID/g
  Concentration of radioactivity, thyroid, Mean: 79.82 % ID/g
  Concentration of radioactivity, uvea (pigmented tissues of the eye), Mean: 11.06 % ID/g
[3]; [8]
  Concentration of radioactivity, B 16 (tumour), Mean: 1.73 % ID/g
  Concentration of radioactivity, uvea (pigmented tissues of the eye), Mean: 9.22 % ID/g

## CCN(CC)CCNC(=O)c1c[nH]c2ccc(I)cc2c1=O [compound 35, N-(2-diethylaminoethyl)-1,4-dihydro-6-iodo-4-oxoquinoline-3-carboxamide dihydrochloride]
[1]
  Faecal elimination 0-72 hours (Faeces): 69.2%
  Urinary and faecal elimination 0-72 hours (Total): 93.0%
  Urinary elimination 0-72 hours (Urine): 23.8%
  elimination route (in words): faecal route predominates
[2]
  Effective period: 49.4 h
  Biological period: 66.3 hours
[3]; 1 H
  Biodistribution, Mean, B 16: 4.69
  Biodistribution, Mean, Ic: 52.94
  Biodistribution, Mean, Sc: 12.74
  Biodistribution, Mean, blood: 0.42
  Biodistribution, Mean, brain: 0.07
  Biodistribution, Mean, kidney: 2.80
  Biodistribution, Mean, liver: 5.16
  Biodistribution, Mean, lungs: 2.06
  Biodistribution, Mean, muscle: 0.92
  Biodistribution, Mean, pancreas: 5.74
  Biodistribution, Mean, spleen: 1.24
  Biodistribution, Mean, uvea: 5.12
[3]; 3 H
  Biodistribution, Mean, B 16: 4.05
  Biodistribution, Mean, Ic: 90.12
  Biodistribution, Mean, Sc: 9.93
  Biodistribution, Mean, blood: 0.23
  Biodistribution, Mean, kidney: 0.80
  Biodistribution, Mean, liver: 1.84
  Biodistribution, Mean, lungs: 0.88
  Biodistribution, Mean, muscle: 0.13
  Biodistribution, Mean, pancreas: 0.96
  Biodistribution, Mean, spleen: 0.28
  Biodistribution, Mean, thyroid: 4.33
  Biodistribution, Mean, uvea: 5.66
[3]; 6 H
  Biodistribution, Mean, B 16: 5.81
  Biodistribution, Mean, Ic: 61.06
  Biodistribution, Mean, Sc: 22.27
  Biodistribution, Mean, blood: 0.17
  Biodistribution, Mean, brain: 0.08
  Biodistribution, Mean, kidney: 0.20
  Biodistribution, Mean, liver: 0.32
  Biodistribution, Mean, lungs: 0.15
  Biodistribution, Mean, muscle: 0.01
  Biodistribution, Mean, pancreas: 1.08
  Biodistribution, Mean, spleen: 0.26
  Biodistribution, Mean, thyroid: 8.55
  Biodistribution, Mean, uvea: 5.18
[3]; 24 H
  Biodistribution, Mean, B 16: 2.74
  Biodistribution, Mean, Ic: 1.62
  Biodistribution, Mean, Sc: 0.13
  Biodistribution, Mean, blood: 0.22
  Biodistribution, Mean, brain: 0.04
  Biodistribution, Mean, kidney: 0.03
  Biodistribution, Mean, liver: 0.07
  Biodistribution, Mean, lungs: 0.04
  Biodistribution, Mean, spleen: 0.15
  Biodistribution, Mean, thyroid: 5.09
  Biodistribution, Mean, uvea: 3.5
[3]; 72 H
  Biodistribution, Mean, B 16: 2.35
  Biodistribution, Mean, Ic: 0.70
  Biodistribution, Mean, brain: 0.10
  Biodistribution, Mean, thyroid: 9.83
  Biodistribution, Mean, uvea: 6.79

## CCN(CC)CCNC(=O)c1nc2ccc(I)cc2[nH]1.Cl.Cl [compound 26, N-(2-diethylaminoethyl)-5-iodobenzimidazole-2-carboxamide dihydrochloride]
[1]
  Faecal elimination 0-72 hours (Faeces): 40.7%
  Urinary and faecal elimination 0-72 hours (Total): 57.8%
  Urinary elimination 0-72 hours (Urine): 17.1%
  elimination kinetics from the body (in words): lower elimination
[2]
  Effective period: 35.1 h
  Biological period: 42.9 hours
[3]; [4]
  Concentration of radioactivity, B 16 (tumour), Mean: 14.78 % ID/g
  Concentration of radioactivity, Ic (intestinal contents), Mean: 105.55 % ID/g
  Concentration of radioactivity, Sc (stomach contents), Mean: 24.46 % ID/g
  Concentration of radioactivity, blood (measured in the heart cavity), Mean: 3.31 % ID/g
  Concentration of radioactivity, kidney, Mean: 6.90 % ID/g
  Concentration of radioactivity, liver, Mean: 13.08 % ID/g
  Concentration of radioactivity, lungs, Mean: 5.16 % ID/g
  Concentration of radioactivity, muscle (skeletal muscle), Mean: 0.55 % ID/g
  Concentration of radioactivity, pancreas, Mean: 6.17 % ID/g
  Concentration of radioactivity, spleen, Mean: 11.51 % ID/g
  Concentration of radioactivity, uvea (pigmented tissues of the eye), Mean: 12.87 % ID/g
[3]; [5]
  Concentration of radioactivity, B 16 (tumour), Mean: 16.13 % ID/g
  Concentration of radioactivity, GB (gall bladder), Mean: 160.60 % ID/g
  Concentration of radioactivity, Ic (intestinal contents), Mean: 72.05 % ID/g
  Concentration of radioactivity, Sc (stomach contents), Mean: 17.98 % ID/g
  Concentration of radioactivity, blood (measured in the heart cavity), Mean: 1.33 % ID/g
  Concentration of radioactivity, kidney, Mean: 4.57 % ID/g
  Concentration of radioactivity, liver, Mean: 7.15 % ID/g
  Concentration of radioactivity, lungs, Mean: 3.74 % ID/g
  Concentration of radioactivity, thyroid, Mean: 63.44 % ID/g
  Concentration of radioactivity, uvea (pigmented tissues of the eye), Mean: 24.40 % ID/g
[3]; [6]
  Concentration of radioactivity, B 16 (tumour), Mean: 9.90 % ID/g
  Concentration of radioactivity, GB (gall bladder), Mean: 38.11 % ID/g
  Concentration of radioactivity, Ic (intestinal contents), Mean: 95.86 % ID/g
  Concentration of radioactivity, Sc (stomach contents), Mean: 8.62 % ID/g
  Concentration of radioactivity, liver, Mean: 3.38 % ID/g
  Concentration of radioactivity, spleen, Mean: 14.97 % ID/g
  Concentration of radioactivity, thyroid, Mean: 34.17 % ID/g
  Concentration of radioactivity, uvea (pigmented tissues of the eye), Mean: 10.09 % ID/g
[3]; [7]
  Concentration of radioactivity, B 16 (tumour), Mean: 7.06 % ID/g
  Concentration of radioactivity, Ic (intestinal contents), Mean: 3.19 % ID/g
  Concentration of radioactivity, Sc (stomach contents), Mean: 2.32 % ID/g
  Concentration of radioactivity, thyroid, Mean: 142.88 % ID/g
  Concentration of radioactivity, uvea (pigmented tissues of the eye), Mean: 10.44 % ID/g
[3]; [8]
  Concentration of radioactivity, B 16 (tumour), Mean: 4.54 % ID/g
  Concentration of radioactivity, thyroid, Mean: 174.73 % ID/g
  Concentration of radioactivity, uvea (pigmented tissues of the eye), Mean: 7.26 % ID/g
[3]; at 72 hours (FIG. 1B)
  tumour concentration, times higher than with BZA: 6 times
[3]; from the first hour
  tumour concentration, % of the injected dose per gram of tumour: 14.8 % ID/g
